Consider three molecules from patent publication US4448717A, “Pharmacologically active peptides” (Eli Lilly and Company, priority 1982, dated 1984).

One assay has as its system mice. The settings on record: cited from earlier work.
A further assay deals with mouse (Harlan ND4). Kind of assay: mouse hot plate test (mouse jump). The class given is in vivo. The settings on record: subcutaneous injection, 15 minutes after administration, hot plate 55° C., dose producing analgesia in 50% of mice. Here is the method: In this test, an upright acrylic cylinder comprising, as its base, a hot plate surface which is maintained at 55° C. is used. A mouse (Harlan ND4) is given, by subcutaneous injection, a predetermined amount of test compound dissolved or suspended in a suitable carrier, and, 15 minutes after administration of the test compound, the mouse is placed on the hot plate surface. The latency in seconds until the mouse jumps from the hot plate surface is measured. […] This must occur in a dose range which produces no motor incoordination or incapacitation. The following Table records ED50 results obtained from this test. By the term "ED50 " is meant that dose which produces analgesia in 50% of the mice tested. Analgesia is defined as a response latency in the presence of test compound that is equal to or greater than the control response latency plus two standard deviations. The percent analgesia data are converted to probits, and the ED50 is calculated by regression analysis of the dose-response data. Each dose response curve must have at least four points, and each point is determined using data from a minimum of ten treated mice and ten control mice.
(In general: In hot-plate and tail-flick tests a longer latency is read as antinociception.)

The next assay deals with T1, enkephalin (δ) receptor (Mus musculus, UniProt P32300).
T1 construct: from tissue; host or cells: mouse vas deferens (Harlan ND4 mice)
Briefly: mouse vas deferens assay. The class given is cell-based. As to conditions: depression of 50% of the electrically evoked contraction, field stimulation 0.15 Hz, 37° C. Here is the method: In the mouse vas deferens test, single mouse vas deferens from mature mice (Harlan ND4, 30-40 g.) are suspended in 3 ml. of modified Kreb's solution aerated with 95% O2 -5% CO2 and maintained at 37° C. The twitch induced by field stimulation (0.15 Hz, 1 msec., 40V) is recorded on a polygraph via an isometric transducer. The test compound is added to the bath in 20 to 30 μl. aliquots. A dose-response curve is constructed by cumulative addition of appropriate amounts of the compound to the bath. Comparison of relative agonist potency at the δ receptor is made on the basis of IC50 values (concentration causing depression of 50% of the electrically evoked contraction).
The Table following also provides results for compounds of this invention when tested in the mouse vas deferens assay.

pIC50: −log10 of the molar value.

T1 sequence (P32300 whole entry): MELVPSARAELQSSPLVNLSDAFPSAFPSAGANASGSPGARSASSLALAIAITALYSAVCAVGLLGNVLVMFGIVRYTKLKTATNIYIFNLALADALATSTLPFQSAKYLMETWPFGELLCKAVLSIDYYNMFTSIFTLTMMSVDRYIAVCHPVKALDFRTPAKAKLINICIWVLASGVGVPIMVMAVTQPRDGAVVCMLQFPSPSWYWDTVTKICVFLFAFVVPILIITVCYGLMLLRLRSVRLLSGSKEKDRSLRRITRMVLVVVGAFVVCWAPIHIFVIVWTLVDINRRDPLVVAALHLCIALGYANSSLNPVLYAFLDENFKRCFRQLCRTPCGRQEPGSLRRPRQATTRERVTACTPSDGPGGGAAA

As to “H-Tyr-Gly-Gly-Phe-Met-OH [methionine enkephalin]”, in the assay with mice, the “analgesic activity when administered parenterally” value is on record as “practically devoid of any useful analgesic activity”.
For `CCN(C(=O)CNC(=O)[C@@H](C)NC(=O)[C@@H](N)Cc1ccc(O)cc1)[C@@H](Cc1ccccc1)C(C)=O` [Example 2, L-Tyrosyl-D-alanyl-N-ethyl-N-(2-oxo-1-benzylpropyl)glycinamide], the “Mouse Jump ED50” value in the assay with mouse (Harlan ND4) amounted to 0.006 mg/kg. The pIC50 against enkephalin (δ) receptor is 9.15.
In the same order, the values of `CC(=O)C(Cc1ccccc1)NC(=O)CNC(=O)[C@@H](C)NC(=O)[C@@H](N)Cc1ccc(O)cc1` (stereo partly drawn) [Example 1, L-Tyrosyl-D-alanyl-N-(2-oxo-1-benzylpropyl)glycinamide] are 3.2 mg/kg and 9.31.

By pIC50 is commonly meant the negative decadic logarithm of the IC50, by convention in mol/L.
